Results from ChEMBL document CHEMBL3992540, “Novel indolin-2-one-based sulfonamides as carbonic anhydrase inhibitors: Synthesis, in vitro biological evaluation against carbonic anhydrases isoforms I, II, IV and VII and molecular docking studies” (Eur J Med Chem, 2017).

Legend:
Carbonic anhydrase 4 = Carbonic anhydrase 4 (Homo sapiens, UniProt P22748); test: Inhibition of human recombinant carbonic anhydrase 4 incubated for 15 mins prior to testing by stopped-flow CO2 hydration assay
Carbonic anhydrase 2 = Carbonic anhydrase 2 (Homo sapiens, UniProt P00918); test: Inhibition of human recombinant carbonic anhydrase 2 incubated for 15 mins prior to testing by stopped-flow CO2 hydration assay
Carbonic anhydrase 7 = Carbonic anhydrase 7 (Homo sapiens, UniProt P43166); test: Inhibition of human recombinant carbonic anhydrase 7 incubated for 15 mins prior to testing by stopped-flow CO2 hydration assay
Chain of Carbonic anhydrase 7 (P43166 whole entry): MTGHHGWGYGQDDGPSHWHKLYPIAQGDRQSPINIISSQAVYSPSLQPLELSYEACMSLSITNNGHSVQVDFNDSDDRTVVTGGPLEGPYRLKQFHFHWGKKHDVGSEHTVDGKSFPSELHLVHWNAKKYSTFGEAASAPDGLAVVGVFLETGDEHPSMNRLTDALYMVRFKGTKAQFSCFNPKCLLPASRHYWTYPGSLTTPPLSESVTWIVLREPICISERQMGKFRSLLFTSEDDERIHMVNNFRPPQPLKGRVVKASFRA

Carbonic anhydrase 1 = Carbonic anhydrase 1 (Homo sapiens, UniProt P00915); test: Inhibition of human recombinant carbonic anhydrase 1 incubated for 15 mins prior to testing by stopped-flow CO2 hydration assay
Chain of Carbonic anhydrase 1 (P00915 whole entry): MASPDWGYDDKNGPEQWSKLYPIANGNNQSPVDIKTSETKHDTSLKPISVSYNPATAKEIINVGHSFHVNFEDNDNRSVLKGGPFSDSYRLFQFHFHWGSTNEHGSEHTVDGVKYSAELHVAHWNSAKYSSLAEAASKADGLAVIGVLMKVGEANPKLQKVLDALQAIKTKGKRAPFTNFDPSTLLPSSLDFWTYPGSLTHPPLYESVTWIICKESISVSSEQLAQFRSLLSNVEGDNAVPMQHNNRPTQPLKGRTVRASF

Chain of Carbonic anhydrase 4 (P22748 whole entry): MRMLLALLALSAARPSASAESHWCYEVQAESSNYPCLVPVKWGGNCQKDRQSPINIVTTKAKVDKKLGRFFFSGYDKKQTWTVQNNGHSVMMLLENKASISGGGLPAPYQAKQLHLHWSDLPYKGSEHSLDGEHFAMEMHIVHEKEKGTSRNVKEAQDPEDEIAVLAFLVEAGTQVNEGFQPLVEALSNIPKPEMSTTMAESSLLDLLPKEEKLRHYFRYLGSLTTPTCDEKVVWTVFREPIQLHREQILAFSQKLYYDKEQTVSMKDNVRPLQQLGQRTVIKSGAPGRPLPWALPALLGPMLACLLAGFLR

Row | Structure (SMILES) | Ki (Carbonic anhydrase 4) | Ki (Carbonic anhydrase 2) | Ki (Carbonic anhydrase 7) | Ki (Carbonic anhydrase 1)
1 | NS(=O)(=O)c1ccc(CC/N=C2\NC(=O)/C(=C3/C(=O)Nc4ccc(Br)cc43)S2)cc1 | 40.7 nM | 157 nM | 79.3 nM | 3600 nM
2 | Cc1ccc2c(c1)/C(=N/CCc1ccc(S(N)(=O)=O)cc1)C(=O)N2 | – | – | – | 316 nM
3 | NS(=O)(=O)c1ccc(CC/N=C2\C(=O)N(Cc3ccccc3)c3ccccc32)cc1 | – | – | 536 nM | 746 nM
4 | Cc1cc(C)c2c(c1)/C(=N/CCc1ccc(S(N)(=O)=O)cc1)C(=O)N2 | – | 50.5 nM | 90.9 nM | 256 nM
5 | NS(=O)(=O)c1ccc(CC/N=C2\C(=O)N(Cc3ccccc3)c3ccc(Br)cc32)cc1 | – | – | – | 6150 nM
6 | NS(=O)(=O)c1ccc(CC/N=C2\NC(=O)/C(=C3/C(=O)Nc4ccccc43)S2)cc1 | – | 262 nM | – | 875 nM
7 | Cc1ccc2c(c1)/C(=C1/S/C(=N/CCc3ccc(S(N)(=O)=O)cc3)NC1=O)C(=O)N2 | – | 63.9 nM | 67.2 nM | 845 nM
8 | NS(=O)(=O)c1ccc(CC/N=C2\NC(=O)/C(=C3/C(=O)Nc4ccc(Cl)cc43)S2)cc1 | – | 302 nM | – | 4450 nM
9 | CN1C(=O)/C(=N\CCc2ccc(S(N)(=O)=O)cc2)c2cc(Cl)ccc21 | 31.2 nM | 7.7 nM | 91 nM | 668 nM
10 | COc1ccc2c(c1)/C(=N/CCc1ccc(S(N)(=O)=O)cc1)C(=O)N2 | – | – | – | 206 nM
11 | NS(=O)(=O)c1ccc(CC/N=C2\NC(=O)/C(=C3/C(=O)Nc4ccc([N+](=O)[O-])cc43)S2)cc1 | – | 28.6 nM | – | 265 nM
12 | NS(=O)(=O)c1ccc(CC/N=C2\C(=O)N(Cc3ccccc3)c3ccc(Cl)cc32)cc1 | – | – | > 10000 nM | 8550 nM

The next compounds have a lower Ki (Carbonic anhydrase 1) than those just listed; values first:

Row | Ki (Carbonic anhydrase 4) | Ki (Carbonic anhydrase 2) | Ki (Carbonic anhydrase 7) | Ki (Carbonic anhydrase 1) | Structure (SMILES)
13 | – | – | – | 92.5 nM | NS(=O)(=O)c1ccc(CC/N=C2\C(=O)Nc3ccccc32)cc1
14 | – | – | 28.6 nM | 42 nM | CN1C(=O)/C(=N\CCc2ccc(S(N)(=O)=O)cc2)c2ccccc21
15 | – | – | – | 64.1 nM | NS(=O)(=O)c1ccc(CC/N=C2\C(=O)Nc3ccc(Cl)cc32)cc1
16 | 79.4 nM | 6.6 nM | 13.2 nM | 93.9 nM | NS(=O)(=O)c1ccc(CC/N=C2\NC(=O)CS2)cc1
17 | – | – | – | 81.5 nM | NS(=O)(=O)c1ccc(CC/N=C2\C(=O)Nc3ccc(Br)cc32)cc1
18 | – | 5.9 nM | – | 64.9 nM | CN1C(=O)/C(=N\CCc2ccc(S(N)(=O)=O)cc2)c2cc(Br)ccc21
